How the values were obtained:
Format in all cases: toxicity, cell-based
[1] = test system: Fibroblast; assay: Incucyte cell viability with human fibroblast; settings: 10 µM, compound concentration 10 uM
[2] = test system: HEK-293T; assay: Incucyte cell viability with HEK293T; settings: human, 10 µM, compound concentration 10 uM
[3] = test system: U2OS; assay: Incucyte cell viability with U2OS; settings: human, 10 µM, compound concentration 10 uM
[4] = 0 h, replicate number 1, timepoint 0 hours
[5] = 12 h, replicate number 2, timepoint 12 hours
[6] = 18 h, replicate number 2, timepoint 18 hours
[7] = 24 h, replicate number 1, timepoint 24 hours
[8] = 0 h, replicate number 2, timepoint 0 hours
[9] = 6 h, replicate number 1, timepoint 6 hours
[10] = 12 h, replicate number 1, timepoint 12 hours
[11] = 6 h, replicate number 2, timepoint 6 hours
[12] = 18 h, replicate number 1, timepoint 18 hours
[13] = 24 h, replicate number 2, timepoint 24 hours
Note: filed as whole numbers so only -1 and 0 and 1 occur.

Row | SMILES | Growth Rate [1, 4] | Growth Rate [1, 7] | Growth Rate [2, 8] | Growth Rate [2, 9] | Growth Rate [2, 10] | Growth Rate [2, 7] | Growth Rate [3, 4] | Growth Rate [3, 8] | Growth Rate [3, 11] | Growth Rate [3, 10] | Growth Rate [3, 12] | Growth Rate [3, 7] | Growth Rate [1, 10] | Growth Rate [1, 12] | Growth Rate [2, 12] | Growth Rate [3, 9] | Growth Rate [3, 6] | Growth Rate [1, 9] | Growth Rate [2, 4] | Growth Rate [2, 13] | further results
1 | Cl.Cl.c1ccc([C@@H]2C[C@H]2NC2CCNCC2)cc1 | 0 | 1 | 1 | 0 | 1 | 1 | 0 | 1 | 1 | 1 | 1 | 1 | – | – | – | – | – | – | – | – | Growth Rate [1, 5]: 1; Growth Rate [1, 6]: 1
2 | CCC(=O)Nc1cccc(Oc2nc(Nc3ccc(N4CCN(C)CC4)cc3OC)ncc2Cl)c1 | – | 0 | – | 0 | 0 | 0 | 0 | – | 1 | 0 | 0 | 0 | 0 | 0 | 0 | 0 | 1 | – | – | – | –
3 | Cc1cccc(-c2cnc3occ(-c4ccc(C(=O)O)c(C5CCCC5)c4)c3c2)c1 | – | 0 | 0 | – | – | 1 | 0 | – | – | 1 | 0 | 1 | 0 | 0 | 1 | 0 | 1 | 0 | 1 | – | Growth Rate [1, 8]: 1; Growth Rate [3, 5]: 0
4 | C[C@H]1CC(=O)Nc2cc(C(=O)NCCC3CC3)ccc2N1C(=O)N1CC2CC2C1 (some centres undefined) | 0 | 1 | 1 | – | – | 0 | 1 | – | – | 1 | 1 | 1 | 1 | 0 | 1 | 0 | – | 0 | 0 | 1 | Growth Rate [1, 5]: 0; Growth Rate [1, 13]: 0; Growth Rate [2, 11]: 1; Growth Rate [2, 5]: 0
5 | CN(C)C(=O)c1ccc(-c2cc(C(=O)N[C@@H]3CCc4ccccc43)no2)cc1O | 0 | 0 | – | – | – | 1 | 0 | – | – | 0 | 0 | 1 | 0 | 1 | – | 0 | 1 | 1 | 1 | – | Growth Rate [1, 13]: 1; Growth Rate [2, 11]: 0; Growth Rate [2, 5]: 0; Growth Rate [3, 5]: 1
6 | O=C(NCCCN1CCOC1=O)c1cnc(NCc2cc(Br)ccc2Br)nc1NC1CCCC1 | – | 0 | – | 1 | – | 1 | 0 | – | – | 1 | 0 | 1 | 0 | 0 | 1 | 1 | – | 0 | 0 | 0 | Growth Rate [2, 5]: 1
7 | CC(C)S(=O)(=O)c1ccc2nccc(Nc3ccc4scnc4c3)c2c1 | – | 0 | – | 0 | 0 | 0 | 1 | 0 | – | 1 | 0 | 1 | 0 | 0 | 0 | 0 | 1 | 0 | – | – | Growth Rate [1, 8]: 0
8 | O=C(NCc1ccccc1)c1ccc(S(=O)(=O)NCc2ccccc2)cc1 | 0 | 0 | – | 0 | 1 | 0 | – | 1 | – | 1 | 0 | 1 | 0 | 1 | 1 | 0 | – | 0 | 0 | 1 | Growth Rate [1, 11]: 1; Growth Rate [1, 5]: 1; Growth Rate [1, 6]: 0; Growth Rate [2, 11]: 1; Growth Rate [3, 13]: 0
9 | O=C(O)c1ccc(-c2coc3ncc(-c4ccccc4)cc23)cc1Cl | – | 0 | 1 | 0 | 0 | 0 | – | 0 | 0 | 1 | 1 | 1 | 0 | 0 | 0 | 1 | – | 1 | 0 | – | Growth Rate [1, 8]: 0; Growth Rate [1, 11]: 0; Growth Rate [2, 11]: 1
10 | NC(=O)c1ccc(NC(=O)NCc2cccc(C(=O)Nc3ccc4c(c3)CNCC4)c2)cc1 | 0 | 1 | – | – | – | 0 | 0 | – | – | 1 | 1 | 1 | 0 | 1 | 1 | 0 | – | 0 | 0 | 1 | Growth Rate [1, 11]: 1
11 | CN(C)[C@@H]1CCN(c2cc(-c3ccccc3)nc3ccnn23)C1 [(R)-ZINC-3573] | 0 | 1 | – | 1 | 1 | 1 | – | – | 0 | 1 | 0 | 1 | 1 | 1 | 1 | – | 1 | 0 | 0 | 0 | Growth Rate [1, 6]: 0; Growth Rate [3, 5]: 0
